Patent publication US7692011B2, “8-hydroxy and 8-mercapto quinazolinones” (Prana Biotechnology Limited, priority 2002, dated 2010)
Values joined by “and” are separate entries in the source; they are usually repeats but may differ in a detail not shown here. Equal values may be shown once.

What was measured:
[1] = test system: Aβ from post mortem human AD brain; experiment: Assay 9 Human brain amyloid solubilisation assay; format: biochemical; design: key: (+): effective at solubilising plaques at more than 1 concentration relative to PBS; (−): not effective at solubilising plaques relative to PBS; conditions: relative to PBS
Protocol: Assay 9. Human Brain Amyloid Solubilisation Assay
This assay was performed in order to assess the ability of a test compound to mobilise Aβ from the insoluble to the soluble phase of an extract of tissue from post mortem human AD brain.
Up to 0.5 g of plaque-bearing cortex without meninges was homogenized using a DIAX 900 homogenizer (Heudolph and Co, Kelheim, Germany) or other suitable device for three 30-second periods at full speed in up to 2 ml of ice-cold phosphate-buffered saline, pH 7.4. To obtain the phosphate-buffered saline-extractable fraction, the homogenate was centrifuged at 100,000×g for 30 min and the supernatant removed. […]
Tris-Tricine polyacrylamide gel electrophoresis was performed by loading appropriately diluted samples on to 10% to 20% gradient gels (Novex, San Diego, Calif.) followed by transfer on to 0.2-μm nitrocellulose membrane (Bio-Rad, Hercules, Calif.). Aβ was detected by using monoclonal antibody W02, which detects residues 5 through 8, 17 (or another suitable antibody) in conjunction with horseradish peroxidase-conjugated rabbit anti-mouse IgG (Dako, Denmark), and visualized by using enhanced chemiluminescence (eg ECL; Amersham Life Science, Buckinghamshire, UK). […]
All samples were analysed several times, and gel loadings and dilutions were adjusted to fit within the quantifiable region of the standard curve. […]

[2] = Assay 16 Determination of mouse plasma levels of test compounds; format: in vivo; conditions: for Conc. in mouse plasma: oral 30 mg/kg
Excerpt: [formula] [formula] [formula] • CLtotal=total plasma clearance after IV administration • Vdβ=volume of distribution during the elimination phase after IV administration • BA=oral bioavailability • AUCIV=area under the plasma concentration versus time profile from time zero to infinity after IV administration • AUCoral=area under the plasma concentration versus time profile from time zero to infinity after oral administration • β=terminal elimination rate constant after IV administration Assay 16 Determination of Mouse Plasma Levels of Test Compounds PBT 1061
(§1) Oral administration of PBT 1061 at 30 mg/kg, as a suspension in Na-Carboxymethyl Cellulose (CMC) was administered by oral gavage to four mice. Two mice were sacrificed 30 minutes after administration and two mice were sacrificed 60 minutes after administration. Blood was obtained by cardiac puncture and plasma separated by centrifugation.
The concentration of PBT1061 was determined by LC/MS using the ZQ instrument. The mobile phase consisted of an acetonitrile (ACN)/water gradient (containing 0.05% Formic acid) and the column was a Phenomenex Polar-RP […] 80A (50×2 mm) column.
The mouse plasma samples were directly injected following a protein precipitation with ACN. The analytical method in plasma was linear in the range of 125 to 10,000 ng/ml (R^2=0.9992). Diazepam was used as the internal standard. Recovery of PBT1061 from plasma was ˜100%.
as §1, with “1063” for “1061”
The concentration of PBT1063 was determined by LC/MS using the single quadrupole instrument. The mobile phase consisted of an acetonitrile (ACN)/water gradient (containing 0.05% Formic acid) and the column was a Phenomenex C8 4 μm 80A (50×2 mm) column.
The supplied acute toxicity mouse plasma samples (delivered Feb. 9, 2003) were directly injected following a protein precipitation with ACN. Concentrations were determined by comparison to a calibration curve prepared in rat plasma. The analytical method in plasma was linear in the range of 312 to 10,000 ng/ml (R^2=0.9976). Diazepam was used as the internal standard. Recovery of PBT1063 from plasma was ˜42.9%.

Conc. in mouse plasma ([2]; 30 min, individual mouse) | Conc. in mouse plasma ([2]; 60 min, individual mouse) | concentration at 30 min ([2]; mouse, plasma, po, 30 mg/kg, 30 min, individual mouse (Table 2), read-out: Conc. in mouse plasma) [ng/mL] | concentration at 60 min ([2]; mouse, plasma, po, 30 mg/kg, 60 min, individual mouse (Table 2), read-out: Conc. in mouse plasma) [ng/mL] | Conc. in mouse plasma ([2]; 30 min, individual mouse (Table 2)) [ng/mL] | Conc. in mouse plasma ([2]; 60 min, individual mouse (Table 2)) [ng/mL] | Compound | Assay 9 Brain amyloid solubilisation [1]
 |  |  |  |  |  | Oc1c(N2CCOCC2)ncc2cccnc12 [PBT-1053, 7-Morpholin-4-yl-[1,6]naphthyridin-8-ol] | (+)
1826.61 ng/mL and 5475.88 ng/mL | 2417.55 ng/mL and 1115.24 ng/mL |  |  |  |  | O=c1c2c(Cl)cc(Cl)c(O)c2ncn1C1CC1 [PBT-1061, 5,7-Dichloro-3-cyclopropyl-8-hydroxy-3H-quinazolin-4-one] | (+)
 |  | 413 | 331 | 279.39 | 439.49 | O=c1c(-c2ccc(Cl)cc2)cnc2c(O)c(I)ccn12 [PBT-1063, 3-(4-Chlorophenyl)-9-hydroxy-8-iodopyrido[1,2-a]pyrimidin-4-one] | 
